Results as given in US9512120B2, “Microbicidally active imidazopyridine derivatives” (Syngenta Participations AG, priority 2013, dated 2016).

Key:
[1] = test system: Glomerella lagenarium (Colletotrichum lagenarium); assay: Glomerella lagenarium (Colletotrichum lagenarium) / liquid culture (anthracnose); type: cell-based; settings: Colletotrichum orbiculare, PDB, 24° C., 3-4 days after application, read-out: control of Glomerella lagenarium (inhibition of growth, photometric)
Experimental: Glomerella lagenarium (Colletotrichum lagenarium)/Liquid Culture (Anthracnose): Conidia of the fungus from cryogenic storage were directly mixed into nutrient broth (PDB potato dextrose broth). After placing a DMSO solution of test compound into a 96-well microtiter plate at an application rate of 200 ppm, the nutrient broth containing the fungal spores was added. The test plates were incubated at 24° C. and the inhibition of growth is measured photometrically 3-4 days after application.

Pyrenophora teres = Pyrenophora teres / barley / leaf disc preventative (net blotch); type: in vivo; settings: foliar, barley leaf segments cv Hasso, inoculated two days after application, assessed 5-7 days after application, read-out: control of Pyrenophora teres (disease control compared to untreated)
In short: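 Preventative leaf-disc test: 200 ppm spray, then spore inoculation after two days on barley cv Hasso segments. Incubation 20 °C, 65% relative humidity, 12 h light/12 h dark; efficacy rated against untreated checks at 5-7 days post-application.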

Gaeumannomyces graminis = Gaeumannomyces graminis / liquid culture (take-all of cereals); type: cell-based; settings: PDB, 24° C., 4-5 days after application, read-out: control of Gaeumannomyces graminis (inhibition of growth, photometric)
Experimental: (§1) Gaeumannomyces graminis/Liquid Culture (Take-all of Cereals): Mycelial fragments of the fungus from cryogenic storage were directly mixed into nutrient broth (PDB potato dextrose broth). After placing a DMSO solution of test compound into a 96-well microtiter plate at an application rate of 200 ppm, the nutrient broth Cp.33, containing the fungal spores is added. The test plates were incubated at 24° C. and the inhibition of growth was determined photometrically 4-5 days after application.

[2] = test system: Puccinia recondita f. sp. Tritici; assay: Puccinia recondita f. sp. tritici / wheat / leaf disc preventative (brown rust); type: in vivo; settings: foliar, wheat leaf segments cv Kanzler, inoculated 1 day after application, assessed 7-9 days after application, read-out: control of Puccinia recondita f. sp. Tritici (percent disease control compared to untreated)
In short: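 Preventative test: percent disease control relative to untreated leaf segments was assessed 7-9 days post-application. Wheat (cv Kanzler) leaf discs were treated at 200 ppm and spore-inoculated 1 day afterwards. Discs were held at 19° C and 75% relative humidity under a 12/12 h light cycle.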

[3] = test system: Botryotinia fuckeliana (Botrytis cinerea); assay: Botryotinia fuckeliana (Botrytis cinerea) / liquid culture (gray mould); type: cell-based; settings: Vogels broth, 24° C., 3-4 days after application, read-out: control of Botryotinia fuckeliana (inhibition of growth, photometric)
In short: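 Test compound was applied at 200 ppm in DMSO, then Vogels nutrient broth containing cryo-stored B. cinerea conidia was added. Photometric growth-inhibition reading followed after 3-4 days at 24 °C.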

[4] = test system: Mycosphaerella graminicola (Septoria tritici); assay: Mycosphaerella graminicola (Septoria tritici) / liquid culture (Septoria blotch); type: cell-based; settings: Zymoseptoria tritici, PDB, 24° C., 4-5 days after application, read-out: control of Mycosphaerella graminicola (inhibition of growth, photometric)
In short: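 Growth inhibition was read photometrically after 4–5 days at 24 °C. The test compound was applied at 200 ppm from DMSO solution, then PDB broth seeded with conidia taken straight from cryogenic storage was added.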

[5] = test system: Thanatephorus cucumeris (Rhizoctonia solani); assay: Thanatephorus cucumeris (Rhizoctonia solani) / liquid culture (foot rot, damping-off); type: cell-based; settings: PDB, 24° C., 3-4 days after application, read-out: control of Thanatephorus cucumeris (inhibition of growth, photometric)
In short: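 At 200 ppm, compounds in DMSO were combined with fresh liquid-culture mycelia in PDB and kept at 24° C; photometric measurement of growth inhibition after 3-4 days.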

[6] = test system: Phaeosphaeria nodorum (Septoria nodorum); assay: Phaeosphaeria nodorum (Septoria nodorum) / wheat / leaf disc preventative (glume blotch); type: in vivo; settings: Parastagonospora nodorum, foliar, wheat leaf segments cv Kanzler, inoculated 2 days after application, assessed 5-7 days after application, read-out: control of Phaeosphaeria nodorum (percent disease control compared to untreated)
Experimental: Phaeosphaeria nodorum (Septoria nodorum)/Wheat/Leaf Disc Preventative (Glume Blotch): Wheat leaf segments cv Kanzler were placed on agar in a 24-well plate and sprayed with formulated test compound diluted in water at an application rate of 200 ppm. The leaf disks are inoculated with a spore suspension of the fungus 2 days after application. The inoculated test leaf disks are incubated at 20° C. and 75% relative humidity under a light regime of 12/12 h (light/dark) in a climate cabinet and the activity of a compound is assessed as percent disease control compared to untreated when an appropriate level of disease damage appears in untreated check leaf disks (5-7 days after application).

[7] = test system: Mycosphaerella arachidis (Cercospora arachidicola); assay: Mycosphaerella arachidis (Cercospora arachidicola) / liquid culture (early leaf spot); type: cell-based; settings: PDB, 24° C., 4-5 days after application, read-out: control of Mycosphaerella arachidis (inhibition of growth, photometric)
Experimental: Mycosphaerella Arachidis (Cercospora arachidicola)/Liquid Culture (Early Leaf Spot): Conidia of the fungus from cryogenic storage were directly mixed into nutrient broth (PDB potato dextrose broth). After placing a DMSO solution of test compound into a 96-well microtiter plate at an application rate of 200 ppm, the nutrient broth containing the fungal spores was added. The test plates are incubated at 24° C. and the inhibition of growth was determined photometrically 4-5 days after application.

Sclerotinia sclerotiorum = Sclerotinia sclerotiorum liquid culture (cottony rot / white mold); type: cell-based; settings: PDB, 24° C., 3-4 days after application, read-out: control of Sclerotinia sclerotiorum (inhibition of growth, photometric)
Experimental: Sclerotinia sclerotiorum (Cottony Rot/White Mold): Mycelia fragments of a newly grown liquid culture of the fungus were directly mixed into nutrient broth (PDB potato dextrose broth). After placing a (DMSO) solution of test compound into a microtiter plate (96-well format) the nutrient broth containing the fungal material was added. The test plates are incubated at 24° C. and the inhibition of growth was determined photometrically 3-4 days after application.

[8] = test system: Monographella nivalis (Microdochium nivale); assay: Monographella nivalis (Microdochium nivale) / liquid culture (foot rot cereals); type: cell-based; settings: PDB, 24° C., 4-5 days after application, read-out: control of Monographella nivalis (inhibition of growth, photometric)
Experimental: as §1, with “Monographella nivalis (Microdochium nivale)/Liquid” for “Gaeumannomyces graminis/Liquid”, “(Foot Rot” for “(Take-all of”, “Conidia” for “Mycelial fragments”, “broth” for “broth Cp.33,”, “was” for “is”

| melting point [°C] | Structure (SMILES) | inhibition at 20 ppm [1] [%] | pest or weed control at 200 ppm (Pyrenophora teres) [%] | inhibition at 20 ppm (Gaeumannomyces graminis) [%] | pest or weed control at 200 ppm [2] [%] | inhibition at 20 ppm [3] [%] | inhibition at 20 ppm [4] [%] | inhibition at 20 ppm [5] [%] | pest or weed control at 200 ppm [6] [%] | inhibition at 20 ppm [7] [%] | inhibition at 20 ppm (Sclerotinia sclerotiorum) [%] | inhibition at 20 ppm [8] [%] |
| --- | --- | --- | --- | --- | --- | --- | --- | --- | --- | --- | --- | --- |
| 203 to 206 | Nc1nc(C(F)(F)F)nn1-c1nc2cnccc2n1C1CCCCC1 [Compound 3, 2-(1-cyclohexylimidazo[4,5-c]pyridin-2-yl)-5-(trifluoromethyl)-1,2,4-triazol-3-amine] | ≥ 80 |  |  |  |  |  |  |  |  |  |  |
| 212 to 215 | Cc1nc(N)n(-c2nc3cnccc3n2C2CCCCC2)n1 [Compound 5, 2-(1-cyclohexylimidazo[4,5-c]pyridin-2-yl)-5-methyl-1,2,4-triazol-3-amine] |  | ≥ 80 | ≥ 80 |  |  |  |  |  |  |  |  |
| 198 to 203 | CCc1nc(N)n(-c2nc3cnccc3n2C2CCCCC2)n1 [Compound 7, 2-(1-cyclohexylimidazo[4,5-c]pyridin-2-yl)-5-ethyl-1,2,4-triazol-3-amine] | ≥ 80 |  |  |  |  |  |  |  |  |  |  |
| 240 to 244 | Cn1c(-n2ncnc2N)nc2cnccc21 [Compound 14, 2-(1-methylimidazo[4,5-c]pyridin-2-yl)-1,2,4-triazol-3-amine] |  | ≥ 80 | ≥ 80 |  |  |  |  |  |  |  |  |
| 215 to 216 | C=CCn1c(-n2ncnc2N)nc2cnccc21 [Compound 17, 2-(1-prop-2-enylimidazo[4,5-c]pyridin-2-yl)-1,2,4-triazol-3-amine] |  | ≥ 80 | ≥ 80 | ≥ 80 | ≥ 80 | ≥ 80 | ≥ 80 |  |  |  |  |
| 247 to 252 | CCn1c(-n2ncnc2N)nc2cncc(C=Cc3ccccc3)c21 [Compound 21, 2-[1-ethyl-7-(2-phenylethenyl)imidazo[4,5-c]pyridin-2-yl]-1,2,4-triazol-3-amine] |  |  | ≥ 80 |  |  | ≥ 80 | ≥ 80 |  |  |  |  |
| 275 to 277 | CCn1c(-n2ncnc2N)nc2cncc(-c3ccc(F)cc3)c21 [Compound 29, 2-[1-ethyl-7-(4-fluorophenyl)imidazo[4,5-c]pyridin-2-yl]-1,2,4-triazol-3-amine] |  |  | ≥ 80 |  | ≥ 80 | ≥ 80 | ≥ 80 |  |  |  |  |
|  | CCCC=Cc1cncc2nc(-n3ncnc3N)n(CC)c12 [Compound 68, 2-(1-ethyl-7-pent-1-enylimidazo[4,5-c]pyridin-2-yl)-1,2,4-triazol-3-amine] |  | ≥ 80 | ≥ 80 | ≥ 80 | ≥ 80 | ≥ 80 | ≥ 80 | ≥ 80 | ≥ 80 | ≥ 80 |  |
|  | CCn1c(-n2ncnc2N)nc2cncc(-c3ccccc3C)c21 [Compound 72, 2-[1-ethyl-7-(2-methylphenyl)imidazo[4,5-c]pyridin-2-yl]-1,2,4-triazol-3-amine] |  | ≥ 80 |  | ≥ 80 | ≥ 80 | ≥ 80 | ≥ 80 | ≥ 80 | ≥ 80 |  |  |
|  | CCn1c(-n2ncnc2N)nc2cncc(-c3ccc(OC)cc3Cl)c21 [Compound 94, 2-[7-(2-chloro-4-methoxyphenyl)-1-ethylimidazo[4,5-c]pyridin-2-yl]-1,2,4-triazol-3-amine] | ≥ 80 | ≥ 80 | ≥ 80 | ≥ 80 | ≥ 80 | ≥ 80 | ≥ 80 | ≥ 80 |  | ≥ 80 | ≥ 80 |
| 205 to 209 | CCn1c(-n2ncnc2N)nc2cncc(C(=O)C=Cc3ccc(F)cc3)c21 [Compound 108, 1-[2-(5-amino-1,2,4-triazol-1-yl)-1-ethylimidazo[4,5-c]pyridin-7-yl]-3-(4-fluorophenyl)prop-2-en-1-one] |  | ≥ 80 | ≥ 80 |  |  | ≥ 80 | ≥ 80 |  |  |  |  |
| 207 to 208 | CCCn1c(-n2ncnc2N)nc2cncc(Br)c21 [Compound 110, 2-(7-bromo-1-propylimidazo[4,5-c]pyridin-2-yl)-1,2,4-triazol-3-amine] |  | ≥ 80 |  | ≥ 80 | ≥ 80 | ≥ 80 | ≥ 80 |  |  |  |  |
| 138 to 149 | CCn1c(-n2ncnc2N)nc2cncc(C(C)=NOCc3ccccn3)c21 [Compound 142] |  | ≥ 80 | ≥ 80 |  |  |  | ≥ 80 |  |  |  |  |
|  | C=C(Cl)CO/N=C(\C)c1cncc2nc(-n3ncnc3N)n(CC)c12 [Compound 152] | ≥ 80 | ≥ 80 |  |  |  | ≥ 80 | ≥ 80 |  | ≥ 80 |  |  |
|  | CCn1c(-n2ncnc2N)nc2cncc(/C(C)=N/OC/C=C\Cl)c21 [Compound 171] | ≥ 80 | ≥ 80 | ≥ 80 |  | ≥ 80 | ≥ 80 | ≥ 80 | ≥ 80 |  | ≥ 80 | ≥ 80 |
| 222 to 225 | Nc1nc(-c2ccccc2)nn1-c1nc2cnccc2n1C1CCCCC1 [Example P1, 2-(1-cyclohexylimidazo[4,5-c]pyridin-2-yl)-5-phenyl-1,2,4-triazol-3-amine] |  |  |  |  |  |  |  |  |  |  |  |
| 274 to 278 | CCn1c(-n2ncnc2N)nc2c(Cl)ncc(-c3ccccc3C)c21 [Example P7, 2-[4-chloro-1-ethyl-7-(o-tolyl)imidazo[4,5-c]pyridin-2-yl]-1,2,4-triazol-3-amine] |  |  |  |  |  |  |  |  |  |  |  |
| 220 to 226 | CCn1c(-n2ncnc2N)nc2cncc(C(C)O)c21 (stereo not drawn) [Example P8, 1-[2-(5-amino-1,2,4-triazol-1-yl)-1-ethyl-imidazo[4,5-c]pyridin-7-yl]ethanol] |  |  |  |  |  |  |  |  |  |  |  |
